Data set [1] deals with human orexin-1 receptor (Homo sapiens (Human), UniProt O43613). Nature of the data set: In vitro intracellular calcium measurements (FLIPR), antagonistic activity on orexin-1 receptor. The class given is cell-based. As to conditions: read-out: IC50 OX1. In short, it runs like this:
(§1)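 Recombinant CHO lines bearing human OX1 or OX2 receptors received test antagonist 120 min before agonist addition.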
In general terms: Calcium flux is commonly read through the fluorescence of an indicator in the cells.

In data set [2] the target is human orexin-2 receptor (Homo sapiens (Human), UniProt O43614). The experiment in a line: In vitro intracellular calcium measurements (FLIPR), antagonistic activity on orexin-2 receptor. In kind it is cell-based. As to conditions: read-out: IC50 OX2. An outline of the steps: as §1
In data set [3] the target is CYP3A4 (Homo sapiens (Human), UniProt P08684). Nature of the data set: CYP3A4 inhibition assay (human liver microsomes, testosterone 6β-hydroxylation). As to conditions: read-out: CYP3A4 IC50, 40 μM testosterone. (In general: Liver microsomes are a subcellular fraction often used to study metabolism.)
[4] abbreviates: CHO cells expressing human orexin-1 receptor, FLIPR, 3 nM orexin-A agonist, 120 min antagonist incubation, geometric mean if determined several times.
Setting [5] is: CHO cells expressing human orexin-2 receptor, FLIPR, 3 nM orexin-A agonist, 120 min antagonist incubation, geometric mean if determined several times.

Where two headings read alike, the source gives them in different places.

Usually IC50 stands for the midpoint of a concentration-inhibition curve.

Sequence of human orexin-1 receptor (O43613 whole entry): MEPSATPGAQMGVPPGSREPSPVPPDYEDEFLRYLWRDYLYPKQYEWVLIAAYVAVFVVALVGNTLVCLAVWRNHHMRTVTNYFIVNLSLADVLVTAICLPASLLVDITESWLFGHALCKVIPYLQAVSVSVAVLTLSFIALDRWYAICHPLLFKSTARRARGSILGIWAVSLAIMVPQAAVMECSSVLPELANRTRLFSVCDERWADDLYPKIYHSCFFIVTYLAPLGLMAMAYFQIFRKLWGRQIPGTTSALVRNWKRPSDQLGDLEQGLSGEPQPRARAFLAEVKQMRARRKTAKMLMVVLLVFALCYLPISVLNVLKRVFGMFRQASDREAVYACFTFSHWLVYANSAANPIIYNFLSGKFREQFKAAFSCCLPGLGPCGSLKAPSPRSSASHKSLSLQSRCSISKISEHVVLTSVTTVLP
Sequence of CYP3A4 (P08684 whole entry): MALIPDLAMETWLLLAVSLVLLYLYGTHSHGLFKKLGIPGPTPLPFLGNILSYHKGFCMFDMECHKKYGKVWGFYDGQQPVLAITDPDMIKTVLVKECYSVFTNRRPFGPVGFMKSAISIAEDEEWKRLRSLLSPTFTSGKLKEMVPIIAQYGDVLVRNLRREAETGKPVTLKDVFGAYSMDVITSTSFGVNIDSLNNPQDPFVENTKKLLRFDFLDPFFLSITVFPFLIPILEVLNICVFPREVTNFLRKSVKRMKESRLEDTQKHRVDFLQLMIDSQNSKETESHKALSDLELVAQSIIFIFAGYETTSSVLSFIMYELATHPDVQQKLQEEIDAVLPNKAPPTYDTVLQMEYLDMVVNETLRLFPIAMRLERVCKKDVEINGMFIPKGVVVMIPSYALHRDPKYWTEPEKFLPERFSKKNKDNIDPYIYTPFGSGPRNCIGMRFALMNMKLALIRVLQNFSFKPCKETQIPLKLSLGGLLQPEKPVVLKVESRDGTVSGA
Sequence of human orexin-2 receptor (O43614 whole entry): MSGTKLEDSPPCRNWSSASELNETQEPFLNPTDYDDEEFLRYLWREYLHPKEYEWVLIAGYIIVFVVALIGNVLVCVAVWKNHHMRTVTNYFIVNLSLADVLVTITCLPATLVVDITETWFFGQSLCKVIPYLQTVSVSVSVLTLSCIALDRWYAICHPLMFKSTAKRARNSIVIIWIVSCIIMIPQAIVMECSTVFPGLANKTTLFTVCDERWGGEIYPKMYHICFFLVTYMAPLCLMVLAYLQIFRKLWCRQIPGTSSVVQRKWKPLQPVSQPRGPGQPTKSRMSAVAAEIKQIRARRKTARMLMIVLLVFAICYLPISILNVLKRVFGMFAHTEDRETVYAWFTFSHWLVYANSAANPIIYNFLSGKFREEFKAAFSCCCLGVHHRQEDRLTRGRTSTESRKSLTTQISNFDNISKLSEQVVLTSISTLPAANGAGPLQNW

Regarding `Cc1ccc(-n2nccn2)c(C(=O)N2CCOC[C@H]2Cc2cccc(-n3cncn3)c2)c1` [Example 23, (5-Methyl-2-[1,2,3]triazol-2-yl-phenyl)-[(R)-3-(3-[1,2,4]triazol-1-yl-benzyl)-morpholin-4-yl]-methanone], the IC50 in data set [1] (setting [4]) turned out to be 34 nM; in data set [2] (setting [5]), 4780 nM; in data set [3], 6000 nM.
For `COc1ccc(C[C@@H]2COCCN2C(=O)c2ccccc2-n2nccn2)cc1-c1ncccn1` [Example 5, [(R)-3-(4-Methoxy-3-pyrimidin-2-yl-benzyl)-morpholin-4-yl]-(2-[1,2,3]triazol-2-yl-phenyl)-methanone] the same measures were 4 nM, 2950 nM and over 50000 nM.
The corresponding values for `C[C@@H]1CN(C(=O)c2cccc(Cl)c2-n2nccn2)[C@H](Cc2cc(-n3nccn3)ccc2F)CO1` [Example 173, (3-Chloro-2-[1,2,3]triazol-2-yl-phenyl)-[(2R,5R)-5-(2-fluoro-5-[1,2,3]triazol-2-yl-benzyl)-2-methyl-morpholin-4-yl]-methanone] are 16 nM, 455 nM and 21000 nM.
The corresponding values for `Cc1ccc(-n2nccn2)c(C(=O)N2CCC[C@H]2Cc2cccc(-n3nccn3)c2)c1` [Ref. 2] are 0.5 nM, 8 nM and 3300 nM.
On to `Cc1ccc(C(=O)N2CCOC[C@H]2Cc2cc(-c3ncon3)ccc2F)c(-n2nccn2)c1` [Example 175, [(R)-3-(2-Fluoro-5-[1,2,4]oxadiazol-3-yl-benzyl)-morpholin-4-yl]-(4-methyl-2-[1,2,3]triazol-2-yl-phenyl)-methanone], for which the half-maximal inhibitory concentration (IC50) in data set [1] (setting [4]) was found to be 3 nM; in data set [2] (setting [5]), 359 nM; in data set [3], 35000 nM.
The corresponding values for `Cc1ccc(-n2nccn2)c(C(=O)N2CCOC[C@H]2Cc2cccc(-c3ncon3)c2)c1` [Example 2, (5-Methyl-2-[1,2,3]triazol-2-yl-phenyl)-[(R)-3-(3-[1,2,4]oxadiazol-3-yl-benzyl)-morpholin-4-yl]-methanone] are 7 nM, 406 nM and 43000 nM.
For `C[C@@H]1COC[C@@H](Cc2cccc(-n3nccn3)c2)N1C(=O)c1ccccc1-n1nccn1` [Example 68, [(3R,5R)-3-Methyl-5-(3-[1,2,3]triazol-2-yl-benzyl)-morpholin-4-yl]-(2-[1,2,3]triazol-2-yl-phenyl)-methanone] the same measures were 16 nM, 1300 nM and 24000 nM.
For the compound `Cc1ccc(-n2nccn2)c(C(=O)N2CCOC[C@H]2Cc2cccc(-c3nccs3)c2)c1` [Example 43, (5-Methyl-2-[1,2,3]triazol-2-yl-phenyl)-[(R)-3-(3-thiazol-2-yl-benzyl)-morpholin-4-yl]-methanone], the IC50 in data set [1] (setting [4]) turned out to be 0.3 nM; in data set [2] (setting [5]), 273 nM; in data set [3], 1200 nM.
For `Cc1cccc(C(=O)N2C[C@@H](C)OC[C@H]2Cc2cccc(-n3nccn3)c2)c1-n1nccn1` [Example 97, [(2R,5R)-2-Methyl-5-(3-[1,2,3]triazol-2-yl-benzyl)-morpholin-4-yl]-(3-methyl-2-[1,2,3]triazol-2-yl-phenyl)-methanone] the same measures were 3 nM, 237 nM and 11000 nM.
Take `COc1cc(C(=O)N2CCOC[C@H]2Cc2cccc(-n3nccn3)c2)c(-n2nccn2)cc1F` [Example 78, (4-Fluoro-5-methoxy-2-[1,2,3]triazol-2-yl-phenyl)-[(R)-3-(3-[1,2,3]triazol-2-yl-benzyl)-morpholin-4-yl]-methanone]: the IC50 in data set [1] (setting [4]) worked out at 17 nM; in data set [2] (setting [5]), 528 nM; in data set [3], 22000 nM.
For `Cc1cc(C(=O)N2CCOC[C@H]2Cc2cccc(-c3ncon3)c2)c(-n2nccn2)cc1C` [Example 85, (4,5-Dimethyl-2-[1,2,3]triazol-2-yl-phenyl)-[(R)-3-(3-[1,2,4]oxadiazol-3-yl-benzyl)-morpholin-4-yl]-methanone] the same measures were 1 nM, 21 nM and 25000 nM.
Take `Cc1ccc(-n2nccn2)cc1C[C@@H]1COCCN1C(=O)c1cccc(C)c1-n1nccn1` [Example 124, [(R)-3-(2-Methyl-5-[1,2,3]triazol-2-yl-benzyl)-morpholin-4-yl]-(3-methyl-2-[1,2,3]triazol-2-yl-phenyl)-methanone]: the concentration for half-maximal inhibition (IC50) in data set [1] (setting [4]) stood at 9 nM; in data set [2] (setting [5]) it was 997 nM; in data set [3] it was 22000 nM.
The corresponding values for `Cc1ccc(-n2nccn2)c(C(=O)N2CCOC[C@H]2Cc2cc(-c3ncon3)ccc2F)c1` [Example 174, [(R)-3-(2-Fluoro-5-[1,2,4]oxadiazol-3-yl-benzyl)-morpholin-4-yl]-(5-methyl-2-[1,2,3]triazol-2-yl-phenyl)-methanone] are 8 nM, 642 nM and 50000 nM.
For the compound `C[C@@H]1CN(C(=O)c2cccc(Cl)c2-n2nccn2)[C@H](Cc2cccc(-n3nccn3)c2)CO1` [Example 172, (3-Chloro-2-[1,2,3]triazol-2-yl-phenyl)-[(2R,5R)-2-methyl-5-(3-[1,2,3]triazol-2-yl-benzyl)-morpholin-4-yl]-methanone], the IC50 was 3 nM in data set [1] (setting [4]), 93 nM in data set [2] (setting [5]) and 23000 nM in data set [3].
Turning to `Cc1ccc(C(=O)N2CCOC[C@H]2Cc2cc(Cl)cc(-n3nccn3)c2)c(-n2nccn2)c1` [Example 105, [(R)-3-(3-Chloro-5-[1,2,3]triazol-2-yl-benzyl)-morpholin-4-yl]-(4-methyl-2-[1,2,3]triazol-2-yl-phenyl)-methanone], the IC50 worked out at 2 nM in data set [1], 101 nM in data set [2] (setting [5]) and 21000 nM in data set [3].
Turning to `Cc1ccc(C(=O)N2CCOC[C@H]2Cc2cccc(-n3cccn3)c2)c(-n2nccn2)c1` [Example 22, (4-Methyl-2-[1,2,3]triazol-2-yl-phenyl)-[(R)-3-(3-pyrazol-1-yl-benzyl)-morpholin-4-yl]-methanone], the IC50 in data set [1] (setting [4]) is 3 nM; in data set [2] (setting [5]), 318 nM; in data set [3], 41000 nM.
Regarding `COc1ccc(-n2nccn2)c(C(=O)N2CCOC[C@H]2Cc2cccc(-n3nccn3)c2)c1` [Example 32, (5-Methoxy-2-[1,2,3]triazol-2-yl-phenyl)-[(R)-3-(3-[1,2,3]triazol-2-yl-benzyl)-morpholin-4-yl]-methanone], the IC50 in data set [1] was 7 nM; in data set [2], 489 nM; in data set [3], over 50000 nM.
Consider `Cc1ccc(-n2nccn2)c(C(=O)N2CCOC[C@@]2(C)Cc2cccc(-n3nccn3)c2)c1` [Example 102, [(R)-3-Methyl-3-(3-[1,2,3]triazol-2-yl-benzyl)-morpholin-4-yl]-(5-methyl-2-[1,2,3]triazol-2-yl-phenyl)-methanone], for which the IC50 in data set [1] (setting [4]) was 25 nM; in data set [2] (setting [5]), 1510 nM; in data set [3], 17000 nM.
In the case of `Cc1ccc(C(=O)N2C[C@@H](C)OC[C@H]2Cc2cc(-c3ncccn3)ccc2F)c(-n2nccn2)c1` [Example 149, [(2R,5R)-5-(2-Fluoro-5-pyrimidin-2-yl-benzyl)-2-methyl-morpholin-4-yl]-(4-methyl-2-[1,2,3]triazol-2-yl-phenyl)-methanone], the IC50 in data set [1] (setting [4]) stood at 4 nM; in data set [2] (setting [5]), 263 nM; in data set [3] it was 31000 nM.
Take `Cc1ccc(-n2nccn2)c(C(=O)N2CCOC[C@H]2Cc2ccc(C)c(-n3nccn3)c2)c1` [Example 65, [(R)-3-(4-Methyl-3-[1,2,3]triazol-2-yl-benzyl)-morpholin-4-yl]-(5-methyl-2-[1,2,3]triazol-2-yl-phenyl)-methanone]: the IC50 amounted to 2 nM in data set [1] (setting [4]), 261 nM in data set [2] (setting [5]) and 22000 nM in data set [3].
The corresponding values for `O=C(c1ccccc1-n1nccn1)N1CCOC[C@H]1Cc1cc(-n2nccn2)ccc1F` [Example 57, [(R)-3-(2-Fluoro-5-[1,2,3]triazol-2-yl-benzyl)-morpholin-4-yl]-(2-[1,2,3]triazol-2-yl-phenyl)-methanone] are 48 nM, 2740 nM and 20000 nM.
The corresponding values for `Cc1cc(C)c(-n2nccn2)c(C(=O)N2CCOC[C@H]2Cc2cccc(-n3nccn3)c2)c1` [Example 75, (3,5-Dimethyl-2-[1,2,3]triazol-2-yl-phenyl)-[(R)-3-(3-[1,2,3]triazol-2-yl-benzyl)-morpholin-4-yl]-methanone] are 3 nM, 547 nM and 15000 nM.
The corresponding values for `COc1cc(C(=O)N2CCOC[C@H]2Cc2cc(-n3nccn3)ccc2F)c(-n2nccn2)cc1Cl` [Example 139, (4-Chloro-5-methoxy-2-[1,2,3]triazol-2-yl-phenyl)-[(R)-3-(2-fluoro-5-[1,2,3]triazol-2-yl-benzyl)-morpholin-4-yl]-methanone] are 10 nM, 191 nM and 13000 nM.
As for `COc1ccc(C[C@@H]2COCCN2C(=O)c2cc(C)ccc2-n2nccn2)cc1-c1ncon1` [Example 58, [(R)-3-(4-Methoxy-3-[1,2,4]oxadiazol-3-yl-benzyl)-morpholin-4-yl]-(5-methyl-2-[1,2,3]triazol-2-yl-phenyl)-methanone], the figures for the IC50 in data set [1] (setting [4]), in data set [2] (setting [5]) and in data set [3] were 0.7 nM, 42 nM and 42000 nM, respectively.
For `Cc1ccc(-n2nccn2)c(C(=O)N2CCCC[C@H]2Cc2cccc(-n3nccn3)c2)c1` [Ref. 4] the same measures were 0.3 nM, 2 nM and 7700 nM.

Source of the values: patent US9150566B2, “2-(1,2,3-triazol-2-yl)benzamide and 3-(1,2,3-triazol-2-YL)picolinamide derivatives as orexin receptor antagonists” (ACTELION PHARMACEUTICALS LTD., priority 2011, dated 2015).
